Experimental data taken from PubChem BioAssay (NCI).
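Five concentrations, 48 hours, 96-well plates. GI50 marks 50% less growth. At the TGI there is no net growth.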

Experiments:
Experiment in all cases: NCI-60 cell line screen, 48 h
SF-268 CNS = system: SF-268 CNS
KM12 colon = system: KM12 colon
HT29 colon = system: HT29 colon
MDA-MB-231 breast = system: MDA-MB-231 breast
OVCAR-4 ovarian = system: OVCAR-4 ovarian
LOX IMVI melanoma = system: LOX IMVI melanoma
CAKI-1 renal = system: CAKI-1 renal
SF-539 CNS = system: SF-539 CNS
SR leukemia = system: SR leukemia
SNB-19 CNS = system: SNB-19 CNS
SK-OV-3 ovarian = system: SK-OV-3 ovarian
UACC-257 melanoma = system: UACC-257 melanoma
OVCAR-8 ovarian = system: OVCAR-8 ovarian
OVCAR-3 ovarian = system: OVCAR-3 ovarian
SF-295 CNS = system: SF-295 CNS
HCT-116 colon = system: HCT-116 colon
NCI-H460 lung = system: NCI-H460 lung
HCT-15 colon = system: HCT-15 colon
COLO 205 colon = system: COLO 205 colon
SN12C renal = system: SN12C renal
IGROV1 ovarian = system: IGROV1 ovarian
U251 CNS = system: U251 CNS
BT-549 breast = system: BT-549 breast
T-47D breast = system: T-47D breast
K-562 leukemia = system: K-562 leukemia
HCC-2998 colon = system: HCC-2998 colon
NCI-H23 lung = system: NCI-H23 lung
EKVX NSCLC = system: EKVX NSCLC
HOP-62 NSCLC = system: HOP-62 NSCLC
MDA-MB-435 = system: MDA-MB-435
OVCAR-5 ovarian = system: OVCAR-5 ovarian
NCI-H522 lung = system: NCI-H522 lung
RXF 393 renal = system: RXF 393 renal
NCI/ADR-RES ovarian = system: NCI/ADR-RES ovarian
TK-10 renal = system: TK-10 renal
SK-MEL-5 melanoma = system: SK-MEL-5 melanoma
RPMI-8226 leukemia = system: RPMI-8226 leukemia
MCF7 breast = system: MCF7 breast
A498 renal = system: A498 renal
HL-60(TB) leukemia = system: HL-60(TB) leukemia
SW-620 colon = system: SW-620 colon
MOLT-4 leukemia = system: MOLT-4 leukemia
MALME-3M melanoma = system: MALME-3M melanoma
UACC-62 melanoma = system: UACC-62 melanoma
CCRF-CEM leukemia = system: CCRF-CEM leukemia
786-0 renal = system: 786-0 renal
HS 578T breast = system: HS 578T breast
HOP-92 NSCLC = system: HOP-92 NSCLC
DU-145 prostate = system: DU-145 prostate
ACHN renal = system: ACHN renal
A549 NSCLC = system: A549 NSCLC
UO-31 renal = system: UO-31 renal
SNB-75 CNS = system: SNB-75 CNS
NCI-H226 lung = system: NCI-H226 lung
SK-MEL-2 melanoma = system: SK-MEL-2 melanoma
SK-MEL-28 melanoma = system: SK-MEL-28 melanoma
PC-3 prostate = system: PC-3 prostate
M14 melanoma = system: M14 melanoma

Compound `CCOC(=O)[C@@H](C)C[C@H](Cc1ccccc1)NC(=O)c1csc([C@@H](C[C@H](C(C)C)N(C)C(=O)[C@@H](NC(=O)[C@H]2C[C@H](O[Si](C)(C)C(C)(C)C)CCN2C)C(C)C)OC(C)=O)n1` has a GI50 (SF-268 CNS) of 441 nM, a TGI (SF-268 CNS) greater than 8330 nM and a GI50 (KM12 colon) of 241 nM. It also gave a TGI (KM12 colon) greater than 8330 nM, a GI50 (HT29 colon) of 267 nM and a TGI (HT29 colon) of 1960 nM. The GI50 (MDA-MB-231 breast) was 329 nM, the TGI (MDA-MB-231 breast) was 1890 nM and the GI50 (OVCAR-4 ovarian) was 674 nM. It also gave a TGI (OVCAR-4 ovarian) greater than 8330 nM, a GI50 (LOX IMVI melanoma) of 304 nM and a TGI (LOX IMVI melanoma) greater than 5080 nM. It also gave a GI50 (CAKI-1 renal) of 351 nM, a TGI (CAKI-1 renal) greater than 8330 nM and a GI50 (SF-539 CNS) of 210 nM. For the same compound, the TGI (SF-539 CNS) was 625 nM, the GI50 (SR leukemia) was 38.7 nM and the TGI (SR leukemia) was 1820 nM. The GI50 (SNB-19 CNS) was 299 nM, the TGI (SNB-19 CNS) was greater than 8330 nM and the GI50 (SK-OV-3 ovarian) was 198 nM. It also gave a TGI (SK-OV-3 ovarian) greater than 8330 nM, a GI50 (UACC-257 melanoma) of 789 nM and a TGI (UACC-257 melanoma) greater than 8330 nM. For the same compound, the GI50 (OVCAR-8 ovarian) was 744 nM, the TGI (OVCAR-8 ovarian) was greater than 8330 nM and the GI50 (OVCAR-3 ovarian) was 192 nM. For the same compound, the TGI (OVCAR-3 ovarian) was greater than 2070 nM, the GI50 (SF-295 CNS) was 249 nM and the TGI (SF-295 CNS) was 3410 nM. It also gave a GI50 (HCT-116 colon) of 246 nM, a TGI (HCT-116 colon) of 1630 nM and a GI50 (NCI-H460 lung) of 188 nM. For the same compound, the TGI (NCI-H460 lung) was 1340 nM, the GI50 (HCT-15 colon) was 427 nM and the TGI (HCT-15 colon) was greater than 5020 nM. It also gave a GI50 (COLO 205 colon) of 145 nM, a TGI (COLO 205 colon) of 459 nM and a GI50 (SN12C renal) of 389 nM. The TGI (SN12C renal) was 6420 nM, the GI50 (IGROV1 ovarian) was 272 nM and the TGI (IGROV1 ovarian) was greater than 8330 nM. The GI50 (U251 CNS) was 319 nM, the TGI (U251 CNS) was greater than 4180 nM and the GI50 (BT-549 breast) was 285 nM. The TGI (BT-549 breast) was 2530 nM, the GI50 (T-47D breast) was 297 nM and the TGI (T-47D breast) was greater than 8330 nM. The GI50 (K-562 leukemia) was 170 nM, the TGI (K-562 leukemia) was greater than 5060 nM and the GI50 (HCC-2998 colon) was 182 nM. The TGI (HCC-2998 colon) was 690 nM, the GI50 (NCI-H23 lung) was 333 nM and the TGI (NCI-H23 lung) was greater than 8330 nM. For the same compound, the GI50 (EKVX NSCLC) was 505 nM, the TGI (EKVX NSCLC) was greater than 8330 nM and the GI50 (HOP-62 NSCLC) was 411 nM. The TGI (HOP-62 NSCLC) was greater than 8010 nM, the GI50 (MDA-MB-435) was 38.9 nM and the TGI (MDA-MB-435) was 165 nM. For the same compound, the GI50 (OVCAR-5 ovarian) was 296 nM, the TGI (OVCAR-5 ovarian) was greater than 7430 nM and the GI50 (NCI-H522 lung) was 128 nM. The TGI (NCI-H522 lung) was 1030 nM, the GI50 (RXF 393 renal) was 159 nM and the TGI (RXF 393 renal) was 481 nM. It also gave a GI50 (NCI/ADR-RES ovarian) of 1290 nM, a TGI (NCI/ADR-RES ovarian) of 5030 nM and a GI50 (TK-10 renal) of 946 nM. The TGI (TK-10 renal) was greater than 8330 nM, the GI50 (SK-MEL-5 melanoma) was 187 nM and the TGI (SK-MEL-5 melanoma) was 1390 nM. It also gave a GI50 (RPMI-8226 leukemia) of 275 nM, a TGI (RPMI-8226 leukemia) of 2250 nM and a GI50 (MCF7 breast) of 132 nM. For the same compound, the TGI (MCF7 breast) was greater than 8330 nM, the GI50 (A498 renal) was 167 nM and the TGI (A498 renal) was 890 nM. The GI50 (HL-60(TB) leukemia) was 249 nM, the TGI (HL-60(TB) leukemia) was 896 nM and the GI50 (SW-620 colon) was 319 nM. The TGI (SW-620 colon) was greater than 8330 nM, the GI50 (MOLT-4 leukemia) was 354 nM and the TGI (MOLT-4 leukemia) was greater than 8330 nM. The GI50 (MALME-3M melanoma) was 215 nM, the TGI (MALME-3M melanoma) was greater than 8330 nM and the GI50 (UACC-62 melanoma) was 54.5 nM. For the same compound, the TGI (UACC-62 melanoma) was 3580 nM, the GI50 (CCRF-CEM leukemia) was 298 nM and the TGI (CCRF-CEM leukemia) was greater than 6870 nM. The GI50 (786-0 renal) was 286 nM, the TGI (786-0 renal) was greater than 4360 nM and the GI50 (HS 578T breast) was 217 nM. For the same compound, the TGI (HS 578T breast) was 1350 nM, the GI50 (HOP-92 NSCLC) was 181 nM and the TGI (HOP-92 NSCLC) was 6060 nM. For the same compound, the GI50 (DU-145 prostate) was 287 nM, the TGI (DU-145 prostate) was greater than 3910 nM and the GI50 (ACHN renal) was 427 nM. It also gave a TGI (ACHN renal) greater than 8330 nM, a GI50 (A549 NSCLC) of 379 nM and a TGI (A549 NSCLC) greater than 8330 nM. For the same compound, the GI50 (UO-31 renal) was 440 nM, the TGI (UO-31 renal) was greater than 8330 nM and the GI50 (SNB-75 CNS) was 205 nM. For the same compound, the TGI (SNB-75 CNS) was 760 nM, the GI50 (NCI-H226 lung) was 493 nM and the TGI (NCI-H226 lung) was greater than 4180 nM. The GI50 (SK-MEL-2 melanoma) was 263 nM, the TGI (SK-MEL-2 melanoma) was greater than 7210 nM and the GI50 (SK-MEL-28 melanoma) was 491 nM. For the same compound, the TGI (SK-MEL-28 melanoma) was greater than 8330 nM, the GI50 (PC-3 prostate) was 220 nM and the TGI (PC-3 prostate) was greater than 8330 nM. It also gave a GI50 (M14 melanoma) of 198 nM and a TGI (M14 melanoma) of 1030 nM.
